Assay results taken from ChEMBL document CHEMBL5113380, “Functionalized quinoxalinones as privileged structures with broad-ranging pharmacological activities” (Eur J Med Chem, 2022).
Converted amounts (≈) assume the structure as drawn.

Legend:
Staphylococcus aureus [1] = assay: Antibacterial activity against methicillin-sensitive Staphylococcus aureus; format: functional
Topoisomerase IV = Topoisomerase IV (Staphylococcus aureus, UniProt P0C1S7+P0C1U9); assay: Inhibition of Staphylococcus aureus topoisomerase 4; format: protein-complex assay
[2] = molecular target: Voltage-gated inwardly rectifying potassium channel KCNH2 (Homo sapiens, UniProt Q12809); assay: Inhibition of hERG; format: toxicity
Staphylococcus aureus [3] = assay: Antibacterial activity against methicillin-resistant Staphylococcus aureus; format: functional
[4] = molecular target: Amine oxidase [flavin-containing] A (Homo sapiens, UniProt P21397); assay: Inhibition of MAO-A (unknown origin)
[5] = molecular target: Amine oxidase [flavin-containing] B (Homo sapiens, UniProt P27338); assay: Inhibition of MAO-B (unknown origin)
[6] = Inhibition of IgE-mediated passive cutaneous anaphylaxis in rat when administered intravenously; format: functional; conditions: route iv
[7] = Inhibition of IgE-mediated passive cutaneous anaphylaxis in rat when administered orally; format: functional; conditions: route po
[8] = molecular target: 72 kDa type IV collagenase (Homo sapiens, UniProt P08253); assay: Inhibition of MMP-2 (unknown origin) using succinylated gelatin as substrate incubated for 30 mins and measured by gelatin zymography method
Rattus norvegicus [9] = assay: Antiobesity activity in fasted Sprague-Dawley rat assessed as inhibition of food intake for more than 2 hrs when administered orally; format: functional; conditions: route po
Rattus norvegicus [10] = assay: Antiobesity activity in fasted Sprague-Dawley rat assessed as inhibition of food intake for more than 2 hrs when administered intraperitoneally; format: functional; conditions: route ip
[11] = tested on: Human immunodeficiency virus 1; assay: Antiviral activity against HIV1; format: functional, organism-based
Candida [12] = assay: Antifungal activity against Candida species isolate 1; format: functional
Nakaseomyces glabratus = assay: Antifungal activity against Candida glabrata; format: functional
[13] = tested on: Mycobacterium tuberculosis; assay: Antimycobacterial activity against Mycobacterium tuberculosis at […]; format: functional; conditions: dose 12.5 µg/ml
Candida [14] = assay: Antifungal activity against Candida species isolate 2; format: functional
Candida [15] = assay: Antifungal activity against Candida species isolate 3; format: functional
Escherichia coli = assay: Antibacterial activity against Escherichia coli; format: functional
Candida parapsilosis = assay: Antifungal activity against Candida parapsilosis; format: functional; conditions: Lodderomyces parapsilosis
Candida tropicalis = assay: Antifungal activity against Candida tropicalis; format: functional
Candida albicans = assay: Antifungal activity against Candida albicans; format: functional
Pichia kudriavzevii = assay: Antifungal activity against Candida krusei; format: functional
Rattus norvegicus [16] = assay: Anti-hyperglycemic activity in male Wistar rat assessed as reduction in plasma glucose at 30 mg/kg; format: functional; parameters: scale not given: the % may be the effect or the level left
Rattus norvegicus [17] = assay: Anti-hyperglycemic activity in male Wistar rat assessed as reduction in plasma glucose at 3 mg/kg; format: functional; parameters: scale not given: the % may be the effect or the level left
Rattus norvegicus [18] = assay: Hypolipidemic activity in male Wistar rat assessed as reduction in triglycerides at 3 mg/kg; format: functional; parameters: scale not given: the % may be the effect or the level left
Rattus norvegicus [19] = assay: Anti-hyperglycemic activity in male Wistar rat assessed as reduction in plasma glucose at 10 mg/kg; format: functional; parameters: scale not given: the % may be the effect or the level left
Rattus norvegicus [20] = assay: Anti-hyperglycemic activity in male Wistar rat assessed as reduction in plasma glucose at 100 mg/kg; format: functional; parameters: scale not given: the % may be the effect or the level left
Rattus norvegicus [21] = assay: Hypolipidemic activity in male Wistar rat assessed as reduction in triglycerides at 10 mg/kg; format: functional; parameters: scale not given: the % may be the effect or the level left
Rattus norvegicus [22] = assay: Hypolipidemic activity in male Wistar rat assessed as reduction in triglycerides at 30 mg/kg; format: functional; parameters: scale not given: the % may be the effect or the level left
Rattus norvegicus [23] = assay: Hypolipidemic activity in male Wistar rat assessed as reduction in triglycerides at 100 mg/kg; format: functional; parameters: scale not given: the % may be the effect or the level left
Trichomonas vaginalis = assay: Antiprotozoal activity against Trichomonas vaginalis at 10 ug/ml measured at 48 hrs; format: functional; conditions: dose 10 µg/ml
Toxoplasma gondii = assay: Anti-tachyzoite activity against Toxoplasma gondii at 100 uM; format: functional, type III
[24] = Inhibition of DC-SIGN (unknown origin)
RAW264.7 [25] = assay: Anti-inflammatory activity in mouse RAW264.7 cells assessed as inhibition of LPS-induced iNOS expression at 30 uM; format: functional; parameters: scale not given: the % may be the effect or the level left
RAW264.7 [26] = assay: Anti-inflammatory activity in mouse RAW264.7 cells assessed as inhibition of LPS-induced COX-2 expression at 15 uM; format: functional; parameters: scale not given: the % may be the effect or the level left
Mus musculus = assay: Antiinflammatory activity against mouse assessed as reduction in carragenan-induced paw edema at 25 mg/kg,po treated 1 hr prior to carrageenan challenge; format: functional; parameters: scale not given: the % may be the effect or the level left
RAW264.7 [27] = assay: Anti-inflammatory activity in mouse RAW264.7 cells assessed as inhibition of LPS-induced NO production at 10 uM after 24 hrs by Griess reagent-based assay; format: functional; parameters: scale not given: the % may be the effect or the level left
Rattus norvegicus [28] = assay: Ulcerogenic activity in male albino rat assessed as ulceration at 25 mg/kg, po; format: functional
[29] = Metabolic stability in human liver microsomes assessed as compound remaining after 1 hr; format: ADME, Microsome; conditions: read-out: Stability
[30] = Binding affinity to benzodiazepine receptor (unknown origin); parameters: species or system Homo sapiens
[31] = Drug metabolism in human liver microsomes; format: ADME, Microsome; conditions: read-out: Drug metabolism
[32] = Effect on loperamide-induced constipation in CD-1 mouse assessed as normalization of fecal output and water content at 0.5 mg/kg, po; format: functional
[33] = Inhibition of antigen-induced release of histamine (AIR) from rat peritoneal mast cells (RMC); format: functional, cell-based; conditions: Mast cell, read-out: I50
[34] = Inhibition of IgE-mediated passive cutaneous anaphylaxis in rat at 25 mg/kg, po; format: functional

Chain of Amine oxidase [flavin-containing] A (P21397 whole entry): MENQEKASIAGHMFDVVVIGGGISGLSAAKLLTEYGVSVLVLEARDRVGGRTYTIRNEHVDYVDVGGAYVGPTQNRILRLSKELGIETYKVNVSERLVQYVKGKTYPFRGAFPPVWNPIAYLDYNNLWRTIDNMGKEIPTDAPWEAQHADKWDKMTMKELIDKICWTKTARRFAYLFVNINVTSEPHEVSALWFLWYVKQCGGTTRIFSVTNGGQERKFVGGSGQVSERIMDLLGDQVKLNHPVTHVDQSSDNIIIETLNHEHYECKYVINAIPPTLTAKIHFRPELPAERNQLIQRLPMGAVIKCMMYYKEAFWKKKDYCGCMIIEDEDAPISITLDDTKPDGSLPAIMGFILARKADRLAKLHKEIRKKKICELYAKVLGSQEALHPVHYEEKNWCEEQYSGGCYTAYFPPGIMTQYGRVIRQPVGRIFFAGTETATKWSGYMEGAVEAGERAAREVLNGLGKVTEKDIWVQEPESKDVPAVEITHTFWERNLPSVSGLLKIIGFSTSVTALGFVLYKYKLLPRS
Chain of Voltage-gated inwardly rectifying potassium channel KCNH2 (Q12809 whole entry): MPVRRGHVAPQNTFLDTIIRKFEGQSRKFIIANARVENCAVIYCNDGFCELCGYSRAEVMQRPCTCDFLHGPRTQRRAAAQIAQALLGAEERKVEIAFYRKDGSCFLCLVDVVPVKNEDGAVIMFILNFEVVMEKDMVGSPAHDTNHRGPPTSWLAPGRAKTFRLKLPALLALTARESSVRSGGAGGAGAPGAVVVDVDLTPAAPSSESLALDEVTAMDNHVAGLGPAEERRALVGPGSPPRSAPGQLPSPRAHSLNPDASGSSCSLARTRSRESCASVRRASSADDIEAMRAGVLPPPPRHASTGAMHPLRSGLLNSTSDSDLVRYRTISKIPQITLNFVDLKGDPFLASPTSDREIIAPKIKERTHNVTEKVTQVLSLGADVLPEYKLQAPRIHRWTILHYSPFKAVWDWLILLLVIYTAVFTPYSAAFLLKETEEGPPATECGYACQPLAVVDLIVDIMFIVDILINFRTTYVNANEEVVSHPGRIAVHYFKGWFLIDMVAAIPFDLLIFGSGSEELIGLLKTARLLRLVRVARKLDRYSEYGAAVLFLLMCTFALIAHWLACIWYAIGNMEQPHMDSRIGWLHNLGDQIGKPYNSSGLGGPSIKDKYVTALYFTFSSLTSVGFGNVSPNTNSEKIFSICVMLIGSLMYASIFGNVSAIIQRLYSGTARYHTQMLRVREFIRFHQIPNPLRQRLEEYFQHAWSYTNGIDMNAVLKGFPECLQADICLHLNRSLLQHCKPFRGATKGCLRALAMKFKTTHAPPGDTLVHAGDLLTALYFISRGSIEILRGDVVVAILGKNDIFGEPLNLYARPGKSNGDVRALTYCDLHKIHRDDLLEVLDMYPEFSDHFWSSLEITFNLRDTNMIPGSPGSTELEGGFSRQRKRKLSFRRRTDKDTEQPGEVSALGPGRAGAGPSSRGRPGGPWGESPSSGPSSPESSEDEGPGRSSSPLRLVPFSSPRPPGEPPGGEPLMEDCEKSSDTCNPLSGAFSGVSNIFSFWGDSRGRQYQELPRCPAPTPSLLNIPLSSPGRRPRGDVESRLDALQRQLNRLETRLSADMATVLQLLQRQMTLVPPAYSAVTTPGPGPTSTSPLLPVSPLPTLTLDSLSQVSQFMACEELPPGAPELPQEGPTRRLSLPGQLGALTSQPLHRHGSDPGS
Chain of 72 kDa type IV collagenase (P08253 whole entry): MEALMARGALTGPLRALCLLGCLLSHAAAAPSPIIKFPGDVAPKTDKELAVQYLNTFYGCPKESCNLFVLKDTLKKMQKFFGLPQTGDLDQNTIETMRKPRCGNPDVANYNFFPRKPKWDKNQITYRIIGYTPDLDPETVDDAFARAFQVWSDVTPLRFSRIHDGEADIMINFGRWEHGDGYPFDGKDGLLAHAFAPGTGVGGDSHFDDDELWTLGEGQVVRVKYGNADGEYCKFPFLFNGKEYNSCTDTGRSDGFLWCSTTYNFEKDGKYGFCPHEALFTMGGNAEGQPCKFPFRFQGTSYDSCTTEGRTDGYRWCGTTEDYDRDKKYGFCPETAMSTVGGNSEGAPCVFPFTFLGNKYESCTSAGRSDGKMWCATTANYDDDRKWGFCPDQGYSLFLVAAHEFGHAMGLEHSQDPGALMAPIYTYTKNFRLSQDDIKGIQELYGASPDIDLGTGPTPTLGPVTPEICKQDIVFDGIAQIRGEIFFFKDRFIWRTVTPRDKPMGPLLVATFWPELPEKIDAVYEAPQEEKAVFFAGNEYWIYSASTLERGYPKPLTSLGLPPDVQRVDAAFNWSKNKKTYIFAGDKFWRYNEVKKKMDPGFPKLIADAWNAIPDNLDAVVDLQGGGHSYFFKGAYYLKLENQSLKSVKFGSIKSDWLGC
Chain of Amine oxidase [flavin-containing] B (P27338 whole entry): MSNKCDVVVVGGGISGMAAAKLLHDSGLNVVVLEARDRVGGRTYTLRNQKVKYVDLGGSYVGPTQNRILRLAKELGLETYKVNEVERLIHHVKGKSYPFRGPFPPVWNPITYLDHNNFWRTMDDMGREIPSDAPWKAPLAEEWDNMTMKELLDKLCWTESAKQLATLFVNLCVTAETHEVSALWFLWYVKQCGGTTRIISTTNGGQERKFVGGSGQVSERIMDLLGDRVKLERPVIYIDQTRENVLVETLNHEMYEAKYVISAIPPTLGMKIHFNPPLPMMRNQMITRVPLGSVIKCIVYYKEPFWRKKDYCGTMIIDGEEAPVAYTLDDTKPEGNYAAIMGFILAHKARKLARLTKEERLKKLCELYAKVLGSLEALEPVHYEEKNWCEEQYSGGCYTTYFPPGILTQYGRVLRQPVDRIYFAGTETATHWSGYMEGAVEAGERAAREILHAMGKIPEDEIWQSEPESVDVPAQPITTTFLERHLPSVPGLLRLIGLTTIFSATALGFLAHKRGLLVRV
Chain of Topoisomerase IV (P0C1U9 whole entry): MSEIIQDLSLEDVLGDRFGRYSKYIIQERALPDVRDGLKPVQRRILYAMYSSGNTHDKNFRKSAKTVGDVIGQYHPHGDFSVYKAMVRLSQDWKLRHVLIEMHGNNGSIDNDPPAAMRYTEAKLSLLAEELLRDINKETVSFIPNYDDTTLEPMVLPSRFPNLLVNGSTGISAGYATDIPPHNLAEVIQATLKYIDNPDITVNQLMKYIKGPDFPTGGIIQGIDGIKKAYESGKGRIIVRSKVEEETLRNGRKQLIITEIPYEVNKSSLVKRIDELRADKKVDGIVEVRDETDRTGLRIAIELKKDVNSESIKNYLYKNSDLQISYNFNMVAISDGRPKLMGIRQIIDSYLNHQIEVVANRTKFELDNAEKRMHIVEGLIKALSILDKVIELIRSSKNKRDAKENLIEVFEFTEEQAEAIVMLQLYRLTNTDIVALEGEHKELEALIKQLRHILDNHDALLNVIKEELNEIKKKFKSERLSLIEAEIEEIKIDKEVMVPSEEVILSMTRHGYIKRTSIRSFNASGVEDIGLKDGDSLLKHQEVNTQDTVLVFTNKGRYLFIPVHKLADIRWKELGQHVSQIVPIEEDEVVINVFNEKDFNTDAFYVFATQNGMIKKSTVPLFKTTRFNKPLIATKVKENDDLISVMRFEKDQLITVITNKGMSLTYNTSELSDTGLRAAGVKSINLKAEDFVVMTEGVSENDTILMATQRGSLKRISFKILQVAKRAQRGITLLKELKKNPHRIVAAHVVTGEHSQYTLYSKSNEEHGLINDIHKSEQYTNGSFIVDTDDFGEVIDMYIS
Chain of Topoisomerase IV (P0C1S7 whole entry): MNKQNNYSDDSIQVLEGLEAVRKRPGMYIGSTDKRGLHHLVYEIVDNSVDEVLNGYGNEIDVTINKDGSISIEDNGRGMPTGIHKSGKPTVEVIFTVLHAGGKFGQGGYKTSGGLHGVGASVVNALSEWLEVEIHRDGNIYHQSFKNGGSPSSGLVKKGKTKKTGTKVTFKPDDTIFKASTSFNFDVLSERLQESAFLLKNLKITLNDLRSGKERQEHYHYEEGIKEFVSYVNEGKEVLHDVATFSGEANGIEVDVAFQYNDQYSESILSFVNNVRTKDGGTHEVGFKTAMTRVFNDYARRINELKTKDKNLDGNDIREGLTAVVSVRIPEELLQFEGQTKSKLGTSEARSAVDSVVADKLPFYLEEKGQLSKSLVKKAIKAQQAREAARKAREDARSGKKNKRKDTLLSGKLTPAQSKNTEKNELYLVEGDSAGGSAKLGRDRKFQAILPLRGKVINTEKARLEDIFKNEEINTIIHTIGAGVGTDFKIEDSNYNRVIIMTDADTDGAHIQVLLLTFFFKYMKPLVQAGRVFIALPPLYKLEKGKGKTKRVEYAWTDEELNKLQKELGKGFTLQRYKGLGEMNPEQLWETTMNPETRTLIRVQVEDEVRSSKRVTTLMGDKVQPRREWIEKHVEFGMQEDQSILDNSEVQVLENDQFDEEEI

SMILES: COc1ccc2nccc(CC[C@H]3OC[C@H](NC(=O)c4ccc5c(c4)OCCO5)CO3)c2c1
- MIC (Staphylococcus aureus [1]): 1 µg/mL (≈ 2.22 µM)
- IC50 (Topoisomerase IV): > 200000 nM
- IC50 [2]: > 100000 nM
- MIC (Staphylococcus aureus [3]): 1 µg/mL (≈ 2.22 µM)

SMILES: C/C(=N\NC(=O)Cn1c(=O)c(Cc2ccccc2)nc2ccccc21)c1ccc(O)cc1
- IC50 [4]: 1.6 nM
- IC50 [5]: 980000 nM

SMILES: CCCn1c(=O)c2cc(-c3nnn[nH]3)cn2c2ccccc21
- ED50 [6]: 0.011 mg/kg
- ED50 [7]: 0.44 mg/kg

SMILES: Cc1ccc(NC(=O)C(Cc2ccccc2)NC(=O)Cn2c(=O)c(C)nc3ccccc32)cc1 (stereo not given)
- IC50 [8]: 10500 nM

SMILES: O=C1Nc2cc(Cl)c(Cl)cc2N2CCNC[C@H]12
- ED50 (Rattus norvegicus [9]): 10 mg/kg
- ED50 (Rattus norvegicus [10]): 2 mg/kg

SMILES: O=C1CN(S(=O)(=O)c2c(Cl)cccc2Cl)c2cc(Cl)ccc2N1
- EC50 [11]: 1090 nM

SMILES: O=c1[nH]c2cc([N+](=O)[O-])ccc2nc1CBr
- MIC (Candida [12]): 15.6 µg/mL (≈ 54.9 µM)
- MIC (Nakaseomyces glabratus): 15.6 µg/mL (≈ 54.9 µM)
- Activity [13]: 15%
- MIC (Candida [14]): 31.2 µg/mL (≈ 110 µM)
- MIC (Candida [15]): 15.6 µg/mL (≈ 54.9 µM)
- MIC (Escherichia coli): 125 µg/mL (≈ 440 µM)
- MIC (Candida parapsilosis): 15.6 µg/mL (≈ 54.9 µM)
- MIC (Candida tropicalis): 31.2 µg/mL (≈ 110 µM)
- MIC (Candida albicans): 8 µg/mL (≈ 28.2 µM)
- MIC (Pichia kudriavzevii): 62.5 µg/mL (≈ 220 µM)

SMILES: Cc1cc2c(cc1C)N(CCOc1ccc(/C=C3/SC(=O)NC3=O)cc1)CC(=O)N2
- Activity (Rattus norvegicus [16]): 69.47%
- Activity (Rattus norvegicus [17]): 50.12%
- Activity (Rattus norvegicus [18]): 49.63%
- Activity (Rattus norvegicus [19]): 52.63%
- Activity (Rattus norvegicus [20]): 81.25%
- Activity (Rattus norvegicus [21]): 44.2%
- Activity (Rattus norvegicus [22]): 49.12%
- Activity (Rattus norvegicus [23]): 54.95%

SMILES: O=C1CN(CCCCCN2CCCCCC2)c2ccc([N+](=O)[O-])cc2N1
- Activity (Trichomonas vaginalis): 2.35%
- Activity (Toxoplasma gondii): 88%

SMILES: NS(=O)(=O)c1ccc(CCCC2Nc3ccc(C(=O)N4CCN(c5ccncc5)CC4)cc3NC2=O)cc1 (stereo not given)
- IC50 [24]: 310 nM

SMILES: COc1cc(Cn2c(=O)c3nnc(C(N)=O)n3c3ccccc32)cc(OC)c1OC
- Activity (RAW264.7 [25]): 39.89%
- Activity (RAW264.7 [26]): 53.442%
- Activity (Mus musculus): 50.83%
- Activity (RAW264.7 [27]): 38.82%
- Activity (Rattus norvegicus [28]): 20%

SMILES: COc1ccc(N2CCN(CCCNC(=O)Cn3c(=O)c4cccn4c4c(C)ccnc43)CC2)cc1
- remaining at 1 h [29]: 22%

SMILES: Oc1nc2ccc(Cl)cc2n2nc(-c3ccccc3F)nc12
- Ki [30]: 2.9 nM

SMILES: Nc1ccc([N+](=O)[O-])cc1-c1nc2ccccc2n(Cc2ccccc2)c1=O
- metabolised [31]: 80%
- Activity [32]: 50%

SMILES: CCCn1c(=O)c2nnc(O)n2c2ccc(Cl)cc21
- IC50 [33]: 400 nM
- inhibition in vivo at 25 mg/kg [34]: 53%
- ED50 [7]: 3 mg/kg
